Numbers after ± are expanded uncertainties.

The nature of data set [1]: xn = mol fraction of the nth substance listed. The conditions noted are these: 298.2 K, 101 kPa, Liquid, Camera Imaging.
The nature of data set [2]: refractive index (Na D-line) (dimensionless). Particulars: 101.33 kPa, Liquid, Standard Abbe refractometry.
The conditions of data set [3]: 101.33 kPa, Liquid, Cone and plate viscometry.
The nature of data set [4]: φn = volume fraction of the nth substance listed. Particulars: 101 kPa, Liquid, Camera Imaging, φ1 = 0.5.

In the case of `OCCO` [1,2-ethanediol] + O, the binary diffusion coefficient came to 1.23e-09 m2/s in data set [1] (x1 = 0.0323); 8.36e-10 m2/s in data set [1] (x1 = 0.0698); 7.12e-10 m2/s in data set [1] (x1 = 0.114); 6.38e-10 m2/s in data set [1] (x1 = 0.1667); 5.86e-10 m2/s in data set [1] (x1 = 0.242); 5.02e-10 m2/s in data set [1] (x1 = 0.3104). Besides, the binary diffusion coefficient in data set [1] (x1 = 0.4119) turned out to be 4.33e-10 m2/s; in data set [1] (x1 = 0.5456), 3.2e-10 m2/s; in data set [1] (x1 = 0.7298) it was 2.84e-10 m2/s.

In the case of `Cn1cc[n+](C)c1.F[B-](F)(F)F` [1,3-dimethyl-1H-imidazolium tetrafluoroborate], the refractive index in data set [2] (298.2 K) was found to be 1.4023 ± 0.0004; in data set [2] (318.2 K), 1.3993 ± 0.0004; in data set [2] (328.2 K) it was 1.3988 ± 0.0004; in data set [2] (338.2 K) it was 1.3975 ± 0.0004. The viscosity in data set [3] (298.2 K) stood at 34 ± 1 mPa·s; in data set [3] (308.2 K), 22 ± 1 mPa·s; in data set [3] (318.2 K), 15 ± 1 mPa·s; in data set [3] (328.2 K), 11 ± 1 mPa·s; in data set [3] (338.2 K) it was 7.8 ± 1 mPa·s.

On to `Cn1cc[n+](C)c1.F[B-](F)(F)F` [1,3-dimethyl-1H-imidazolium tetrafluoroborate] + O, for which the binary diffusion coefficient came to 6.87e-10 m2/s in data set [4] (298.2 K); 7.74e-10 m2/s in data set [4] (308.2 K); 8.45e-10 m2/s in data set [4] (318.2 K); 9.62e-10 m2/s in data set [4] (328.2 K); 1.06e-09 m2/s in data set [4] (338.2 K).

As for `CCCCn1cc[n+](C)c1.N#CN=C=[N-]` [1-butyl-3-methylimidazolium dicyanamide] + O, the binary diffusion coefficient in data set [4] (298.2 K) was determined as 2.53e-10 m2/s.

For the compound `CCCCn1cc[n+](C)c1.O=[N+]([O-])[O-]` [1-butyl-3-methylimidazolium nitrate] + O, in data set [4] (298.2 K), the binary diffusion coefficient was 3.13e-10 m2/s.

Regarding `CCCCn1cc[n+](C)c1.F[B-](F)(F)F` [1-butyl-3-methylimidazolium tetrafluoroborate], the refractive index in data set [2] (298.2 K) turned out to be 1.4184 ± 0.0004; in data set [2] (308.2 K) it was 1.4163 ± 0.0004; in data set [2] (318.2 K), 1.4142 ± 0.0004; in data set [2] (328.2 K), 1.4125 ± 0.0004; in data set [2] (338.2 K) it was 1.4106 ± 0.0004. In addition, the viscosity came out at 146 ± 4 mPa·s in data set [3] (298.2 K); 76 ± 2 mPa·s in data set [3] (308.2 K); 45 ± 1 mPa·s in data set [3] (318.2 K); 29 ± 1 mPa·s in data set [3] (328.2 K); 21 ± 1 mPa·s in data set [3] (338.2 K).

Turning to `CCCCn1cc[n+](C)c1.F[B-](F)(F)F` [1-butyl-3-methylimidazolium tetrafluoroborate] + O, the binary diffusion coefficient in data set [4] (298.2 K) stood at 1.24e-10 m2/s; in data set [4] (308.2 K), 2.56e-10 m2/s; in data set [4] (318.2 K) it was 3.83e-10 m2/s; in data set [4] (328.2 K), 5.13e-10 m2/s; in data set [4] (338.2 K) it was 6.45e-10 m2/s.

Regarding `CCn1cc[n+](C)c1.N#CN=C=[N-]` [1-ethyl-3-methylimidazolium dicyanamide] + O, the binary diffusion coefficient in data set [4] (298.2 K) was 7.25e-10 m2/s.

`CCn1cc[n+](C)c1.[O-][Cl+3]([O-])([O-])[O-]` [1-ethyl-3-methylimidazolium perchlorate] + O: the binary diffusion coefficient in data set [4] (298.2 K) was determined as 1.93e-10 m2/s.

`CCn1cc[n+](C)c1.F[B-](F)(F)F` [1-ethyl-3-methylimidazolium tetrafluoroborate]: the refractive index in data set [2] (298.2 K) is given as 1.4098 ± 0.0004; in data set [2] (308.2 K), 1.4082 ± 0.0004; in data set [2] (318.2 K), 1.4065 ± 0.0004; in data set [2] (328.2 K) it was 1.4053 ± 0.0004; in data set [2] (338.2 K), 1.4035 ± 0.0004. The viscosity worked out at 45 ± 1 mPa·s in data set [3] (298.2 K); 27 ± 1 mPa·s in data set [3] (308.2 K); 19 ± 1 mPa·s in data set [3] (318.2 K); 14 ± 1 mPa·s in data set [3] (328.2 K); 11 ± 1 mPa·s in data set [3] (338.2 K).

For the compound `CCn1cc[n+](C)c1.F[B-](F)(F)F` [1-ethyl-3-methylimidazolium tetrafluoroborate] + O, the binary diffusion coefficient worked out at 3.42e-10 m2/s in data set [4] (298.2 K); 4.65e-10 m2/s in data set [4] (308.2 K); 5.57e-10 m2/s in data set [4] (318.2 K); 6.72e-10 m2/s in data set [4] (328.2 K); 7.89e-10 m2/s in data set [4] (338.2 K).

With `O` [water], the refractive index in data set [2] (298.2 K) is 1.3325 ± 0.0005; in data set [2] (308.2 K) it was 1.3313 ± 0.0005; in data set [2] (318.2 K) it was 1.3299 ± 0.0005; in data set [2] (328.2 K) it was 1.3282 ± 0.0005; in data set [2] (338.2 K) it was 1.3275 ± 0.0005. Further, the viscosity in data set [3] (298.2 K) is listed as 0.9 mPa·s; in data set [3] (308.2 K), 0.72 mPa·s; in data set [3] (318.2 K), 0.61 mPa·s; in data set [3] (328.2 K), 0.5 mPa·s; in data set [3] (338.2 K) it was 0.43 mPa·s.

In general, refractive index refers to a measure of how strongly the sample bends light. Usually viscosity stands for the internal friction of a fluid under shear.

The record behind these values is the NIST ThermoML archive (doi:10.1016/j.fluid.2014.01.003).
